pIC50: −log10 of the molar value.
Tested on: 966289-007-R4-J1-PDC complex spheroid viability
Assay: Anticancer human tumor 966289-007-R4-J1-PDC patient-derived pancreatic adenocarcinoma cell line growth inhibition [RAS]
Conditions: for pIC50: curve of first compound; for viability, T/C: stronger effect = lower value
How it was run: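 Tumour cells grown as complex spheroids with HUVEC endothelial cells and mesenchymal stem cells, treated with RAS pathway inhibitor combinations. Each agent spans half-log steps from near clinical Cmax, or 10 microM where Cmax is unknown.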
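Further: spheroids exposed to agents for one week before readout.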
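Wherever viability, T/C is given: percent viability relative to DMSO vehicle control wells as 100%.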

## CC1(C)CCC(Nc2ncc(C(F)(F)F)c(-c3c[nH]c4c(P(C)(C)=O)c(C#N)ccc34)n2)CN1 (stereo not given) + CCn1c(-c2cc(N3CCN(C)CC3)cnc2C(C)OC)c2c3cc(ccc31)-c1csc(n1)CC(NC(=O)C1CC1C)C(=O)N1CCCC(N1)C(=O)OCC(C)(C)C2
Second compound 0.000949 µM
  pIC50: 8.16
Second compound 0.003 µM
  pIC50: 8.17
Second compound 0.00949 µM
  pIC50: 8.16
Second compound 0.03 µM
  pIC50: 8.12
Second compound 0.0949 µM
  pIC50: 8.13
Second compound 0.3 µM
  pIC50: 8.21
Second compound 0.000949 µM, first compound 0.000949 µM
  viability, T/C: 124%
Second compound 0.000949 µM, first compound 0.003 µM
  viability, T/C: 104%
Second compound 0.000949 µM, first compound 0.00949 µM
  viability, T/C: 29%
Second compound 0.000949 µM, first compound 0.03 µM
  viability, T/C: 14.5%
Second compound 0.000949 µM, first compound 0.0949 µM
  viability, T/C: 8.71%
Second compound 0.000949 µM, first compound 0.3 µM
  viability, T/C: 9.97%
Second compound 0.003 µM, first compound 0.000949 µM
  viability, T/C: 134%
Second compound 0.003 µM, first compound 0.003 µM
  viability, T/C: 99.9%
Second compound 0.003 µM, first compound 0.00949 µM
  viability, T/C: 29.9%
Second compound 0.003 µM, first compound 0.03 µM
  viability, T/C: 8.54%
Second compound 0.003 µM, first compound 0.0949 µM
  viability, T/C: 10.7%
Second compound 0.003 µM, first compound 0.3 µM
  viability, T/C: 9.36%
Second compound 0.00949 µM, first compound 0.000949 µM
  viability, T/C: 130%
Second compound 0.00949 µM, first compound 0.003 µM
  viability, T/C: 116%
Second compound 0.00949 µM, first compound 0.00949 µM
  viability, T/C: 26%
Second compound 0.00949 µM, first compound 0.03 µM
  viability, T/C: 14.3%
Second compound 0.00949 µM, first compound 0.0949 µM
  viability, T/C: 12.3%
Second compound 0.00949 µM, first compound 0.3 µM
  viability, T/C: 11.2%
Second compound 0.03 µM, first compound 0.000949 µM
  viability, T/C: 113%
Second compound 0.03 µM, first compound 0.003 µM
  viability, T/C: 115%
Second compound 0.03 µM, first compound 0.00949 µM
  viability, T/C: 34%
Second compound 0.03 µM, first compound 0.03 µM
  viability, T/C: 16.7%
Second compound 0.03 µM, first compound 0.0949 µM
  viability, T/C: 12.3%
Second compound 0.03 µM, first compound 0.3 µM
  viability, T/C: 10.1%
Second compound 0.0949 µM, first compound 0.000949 µM
  viability, T/C: 122%
Second compound 0.0949 µM, first compound 0.003 µM
  viability, T/C: 139%
Second compound 0.0949 µM, first compound 0.00949 µM
  viability, T/C: 27.6%
Second compound 0.0949 µM, first compound 0.03 µM
  viability, T/C: 12.7%
Second compound 0.0949 µM, first compound 0.0949 µM
  viability, T/C: 13.7%
Second compound 0.0949 µM, first compound 0.3 µM
  viability, T/C: 9.77%
Second compound 0.3 µM, first compound 0.000949 µM
  viability, T/C: 128%
Second compound 0.3 µM, first compound 0.003 µM
  viability, T/C: 86.9%
Second compound 0.3 µM, first compound 0.00949 µM
  viability, T/C: 27.7%
Second compound 0.3 µM, first compound 0.03 µM
  viability, T/C: 12.8%
Second compound 0.3 µM, first compound 0.0949 µM
  viability, T/C: 12.7%
Second compound 0.3 µM, first compound 0.3 µM
  viability, T/C: 11.7%

## Nc1ccn(C2OC(CO)C(O)C2(F)F)c(=O)n1 (stereo not given) + C#Cc1c(F)ccc2cc(O)cc(-c3ncc4c(N5CC6CCC(C5)N6)nc(OCC56CCCN5CC(F)C6)nc4c3F)c12
Second compound 0.0316 µM
  pIC50: 8.12
Second compound 0.1 µM
  pIC50: 7.92
Second compound 0.316 µM
  pIC50: 8.08
Second compound 1 µM
  pIC50: 8.05
Second compound 3.16 µM
  pIC50: 8.08
Second compound 10 µM
  pIC50: 8.10
Second compound 0.0316 µM, first compound 0.00316 µM
  viability, T/C: 108%
Second compound 0.0316 µM, first compound 0.01 µM
  viability, T/C: 32.5%
Second compound 0.0316 µM, first compound 0.0316 µM
  viability, T/C: 2.19%
Second compound 0.0316 µM, first compound 0.1 µM
  viability, T/C: 1.41%
Second compound 0.0316 µM, first compound 0.316 µM
  viability, T/C: 1.38%
Second compound 0.0316 µM, first compound 1 µM
  viability, T/C: 1.56%
Second compound 0.1 µM, first compound 0.00316 µM
  viability, T/C: 99.4%
Second compound 0.1 µM, first compound 0.01 µM
  viability, T/C: 58.5%
Second compound 0.1 µM, first compound 0.0316 µM
  viability, T/C: 1.48%
Second compound 0.1 µM, first compound 0.1 µM
  viability, T/C: 1.34%
Second compound 0.1 µM, first compound 0.316 µM
  viability, T/C: 1.6%
Second compound 0.1 µM, first compound 1 µM
  viability, T/C: 1.65%
Second compound 0.316 µM, first compound 0.00316 µM
  viability, T/C: 91.6%
Second compound 0.316 µM, first compound 0.01 µM
  viability, T/C: 42.4%
Second compound 0.316 µM, first compound 0.0316 µM
  viability, T/C: 1.95%
Second compound 0.316 µM, first compound 0.1 µM
  viability, T/C: 1.65%
Second compound 0.316 µM, first compound 0.316 µM
  viability, T/C: 1.22%
Second compound 0.316 µM, first compound 1 µM
  viability, T/C: 1.73%
Second compound 1 µM, first compound 0.00316 µM
  viability, T/C: 101%
Second compound 1 µM, first compound 0.01 µM
  viability, T/C: 44.2%
Second compound 1 µM, first compound 0.0316 µM
  viability, T/C: 2.02%
Second compound 1 µM, first compound 0.1 µM
  viability, T/C: 1.61%
Second compound 1 µM, first compound 0.316 µM
  viability, T/C: 1.68%
Second compound 1 µM, first compound 1 µM
  viability, T/C: 1.67%
Second compound 3.16 µM, first compound 0.00316 µM
  viability, T/C: 97.4%
Second compound 3.16 µM, first compound 0.01 µM
  viability, T/C: 41.4%
Second compound 3.16 µM, first compound 0.0316 µM
  viability, T/C: 2.43%
Second compound 3.16 µM, first compound 0.1 µM
  viability, T/C: 2.49%
Second compound 3.16 µM, first compound 0.316 µM
  viability, T/C: 2.42%
Second compound 3.16 µM, first compound 1 µM
  viability, T/C: 2.25%
Second compound 10 µM, first compound 0.00316 µM
  viability, T/C: 99.1%
Second compound 10 µM, first compound 0.01 µM
  viability, T/C: 37.1%
Second compound 10 µM, first compound 0.0316 µM
  viability, T/C: 1.37%
Second compound 10 µM, first compound 0.1 µM
  viability, T/C: 1.51%
Second compound 10 µM, first compound 0.316 µM
  viability, T/C: 1.83%
Second compound 10 µM, first compound 1 µM
  viability, T/C: 1.37%

## CC1(O)CCCC1n1c(=O)c(C(F)F)cc2cnc(NC3CCN(S(C)(=O)=O)CC3)nc21 (stereo not given)
Compound 0.1 µM
  viability, T/C: 56.9% [middle of 4 runs]
Compound 0.316 µM
  viability, T/C: 27.7% [middle of 4 runs]
Compound 1 µM
  viability, T/C: 31.8% [middle of 4 runs]
Compound 3.16 µM
  viability, T/C: 28.4% [middle of 4 runs]
Compound 10 µM
  viability, T/C: 4.66% [middle of 4 runs]
Curve of compound
  IC50: 145 nM [middle of 4 runs]

From PubChem BioAssay AID2060897 (Molecular Pharmacology Branch, DTP, NCI, 2025)
